Test results reported in publication PMC10643130, “Molecular basis for selective uptake and elimination of organic anions in the kidney by OAT1” (Nature Structural & Molecular Biology, 2023).
Where “and” joins values, the source holds several entries; their conditions need not be identical. Identical values can stand only once.

Key:
[1] = molecular target: T1, HsOAT1 truncation (lacks last 10 amino acids) (Homo sapiens, UniProt Q4U2R8); assay: Cell-based 6-CF transport assay, truncated HsOAT1 lacking the last 10 amino acids; settings: Truncation (+P), 0.1 mM pemetrexed
T1 construct: expressed in transfected cells; host or cells: HeLa
T1 sequence (Q4U2R8 1-552 limits assumed): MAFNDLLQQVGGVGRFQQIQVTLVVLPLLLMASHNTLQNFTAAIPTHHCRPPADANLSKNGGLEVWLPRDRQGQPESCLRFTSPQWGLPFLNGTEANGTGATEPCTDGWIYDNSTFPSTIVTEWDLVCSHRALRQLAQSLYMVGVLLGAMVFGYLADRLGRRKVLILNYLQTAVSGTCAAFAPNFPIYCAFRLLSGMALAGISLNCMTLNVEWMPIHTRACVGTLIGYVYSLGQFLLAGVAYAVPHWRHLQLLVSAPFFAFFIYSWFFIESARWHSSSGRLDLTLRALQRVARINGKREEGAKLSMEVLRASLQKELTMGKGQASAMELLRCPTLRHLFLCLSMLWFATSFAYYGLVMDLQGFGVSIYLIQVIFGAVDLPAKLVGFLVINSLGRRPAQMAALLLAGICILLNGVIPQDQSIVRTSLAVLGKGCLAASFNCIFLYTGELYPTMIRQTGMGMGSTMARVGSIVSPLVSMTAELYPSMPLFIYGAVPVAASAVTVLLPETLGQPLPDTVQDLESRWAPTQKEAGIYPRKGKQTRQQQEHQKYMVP

[2] = molecular target: T2, wild-type human OAT1 (HsOAT1) (Homo sapiens, UniProt Q4U2R8); assay: Cell-based 6-CF transport assay, wild-type HsOAT1 in HeLa cells; settings: for 6-CF uptake, MEAN: WT (+P), 0.1 mM pemetrexed; for effect on OAT1 transport: 10 mM sodium phosphate
T2 sequence (Q4U2R8 1-563): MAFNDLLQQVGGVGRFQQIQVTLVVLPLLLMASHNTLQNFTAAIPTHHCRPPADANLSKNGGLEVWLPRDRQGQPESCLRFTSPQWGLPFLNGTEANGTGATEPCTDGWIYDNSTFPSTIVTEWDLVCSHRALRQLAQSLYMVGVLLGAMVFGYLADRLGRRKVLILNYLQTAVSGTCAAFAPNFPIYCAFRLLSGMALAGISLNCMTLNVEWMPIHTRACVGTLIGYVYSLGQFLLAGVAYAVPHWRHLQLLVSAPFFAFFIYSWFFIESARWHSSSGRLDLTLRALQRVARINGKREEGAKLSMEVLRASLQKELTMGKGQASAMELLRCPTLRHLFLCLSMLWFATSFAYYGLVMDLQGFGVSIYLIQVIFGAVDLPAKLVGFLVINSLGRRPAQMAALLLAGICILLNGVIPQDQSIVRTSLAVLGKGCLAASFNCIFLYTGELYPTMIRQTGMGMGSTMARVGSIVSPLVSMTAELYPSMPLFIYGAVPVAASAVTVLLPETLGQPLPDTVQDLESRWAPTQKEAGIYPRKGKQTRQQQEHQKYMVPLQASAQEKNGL
Description: To assay HsOAT1 transporter activity the model substrate 6-carboxyfluorescein (6-CF)[46],[47]
For transport assays, 1 × 10^5 cells per well were seeded into 24-well plates and 24 h later transfected using FUGENE HD (Promega E2311) Transfection Reagent (0.4 μg DNA per 1 μl of FUGENE per well) with HsOAT1 constructs containing a C-terminal FLAG tag in the vector pCDNA3.1 for 36 h. Expression of each mutant of HsOAT1 was assessed through western blotting on membrane fractions using an anti-FLAG antibody 1:3,000 dilution (Merck F1804), using a loading control of anti-β-actin 1:5,000 dilution (Merck A2228) (Extended Data Fig. 4). […] Background fluorescence was subtracted from cells transfected with the empty plasmid, and the data were normalized to 100%. To assess the activity of HsOAT1 in the presence and absence of chloride, the buffer was 120 mM NaCl, 28 mM glucose and 25 mM HEPES, pH 7.2 or for chloride-free conditions, and 120 mM sodium gluconate was used. […] To study the effect of ligands or inhibitors, the compound of interest was added to the assay buffer at the desired concentration. […] Each concentration was repeated three times to calculate standard errors, and the whole experiment was repeated three times to calculate the mean IC50 and standard error.

Nc1nc2[nH]cc(CCc3ccc(C(=O)N[C@@H](CCC(=O)O)C(=O)O)cc3)c2c(=O)[nH]1 [pemetrexed]
6-CF uptake, MEAN ([1]; 1 min): 19.52
6-CF uptake, MEAN ([1]; 5 min): 17.65
6-CF uptake, MEAN ([1]; 8 min): 16.52
6-CF uptake, MEAN ([1]; 10 min): 12.32
inhibition of 6-CF uptake ([2]; 0.1 mM in assay buffer): fully inhibited
substrate quality in 6-CF assay ([2]; 0.5 mM, uptake after 8 minutes, similar to literature ref 20): poor substrates
6-CF uptake, MEAN ([2]; 1 min): 22
6-CF uptake, MEAN ([2]; 5 min): 18.75
6-CF uptake, MEAN ([2]; 8 min): 24.75
6-CF uptake, MEAN ([2]; 10 min): 17.25
6-CF uptake in presence of substrate, single experiments ([2]; substrate 0.5 mM, uptake after 8 minutes): 71%

O=P(O)(O)O [phosphate, sodium phosphate]
effect on OAT1 transport [2]: no impact
effect on OAT1 transport ([2]; listed as sodium phosphate): no effect

O=C(O)CCCCCC(=O)O [pimelate]
6-CF transport in presence of dicarboxylate, single experiments ([2]; dicarboxylate 0.5 mM, 8 minutes, n = 8): 18.1607% and 12.7635% and 14.6181% and 17.3198% and 16.4606% and 11.6692%
